# Values quoted from earlier work in patent US6475478B2, “Adsorbent, adsorbing and removing process and adsorber for endogenous cannabinoid” (Kaneka Corporation, priority 2000, dated 2002).
# Details: octanol-water system; compound fixed on the carrier
row,SMILES,log P
1,CCCCN [n-butyl amine],0.97
2,CCCCCCCCCCN [n-decyl amine],4.07
